The record followed here is ChEMBL document CHEMBL4837230, “Thiophene-2-carboxamide derivatives of anthraquinone: A new potent antitumor chemotype” (Eur J Med Chem, 2021).

Molecules are shown by their SMILES. Calls of active or inactive are those of the source. The rule behind the calls is not given here. Where only a bound is given, the exact number is not on record here.

The subject of one series is NCI-H460. Put plainly: Cytotoxicity in human NCI-H460 cells assessed as reduction in cell viability incubated for 72 hrs by MTT assay. It counts as functional, cell-based. To be noted: NCI-H460, 72 h.
The subject of the next series is HL-60. In words: Cytotoxicity in human HL-60 cells assessed as reduction in cell viability incubated for 72 hrs by MTT assay. It counts as functional, cell-based. To be noted: HL-60, 72 h.
Another series relates to CAPAN-1. Put plainly: Cytotoxicity in human CAPAN-1 cells assessed as reduction in cell viability incubated for 72 hrs by MTT assay. To be noted: CAPAN-1, 72 h. Format: functional, cell-based.
Series [1] is described as follows: Cytotoxicity in human DND41 cells assessed as reduction in cell viability incubated for 72 hrs by MTT assay. Format: functional, cell-based. The note with it: DND41, 72 h.
A further series concerns Fibroblast. In words: Cytotoxicity in human Fibroblast cells assessed as reduction in cell viability incubated for 72 hrs by MTT assay. Format: functional, cell-based.
The subject of series [2] is HCT-116. In words: Cytotoxicity in human HCT-116 cells assessed as reduction in cell viability incubated for 72 hrs by MTT assay. Format: functional, cell-based. The note with it: HCT-116, 72 h.
Series [3] concerns K562. Put plainly: Induction of ROS generation in human K562 cells at 5 uM after 30 to 60 mins by Deep Red dye based flow cytometry method. Format: functional, cell-based. To be noted: time 30-60 min.
Series [4] concerns K562. Put plainly: Induction of cell cycle arrest in human K562 cells assessed as increase in accumulation at sub-G1 phase at 0.5 uM after 48 hrs by propidium iodide staining based flow cytometric analysis (reference value: 8.4%). Format: functional.
Series [5] has as its system K562. Put plainly: Induction of mitochondrial membrane potential loss in human K562 cells at 7.5 uM after 6 hrs by Mitotracker Red dye based flow cytometric analysis. It counts as functional, cell-based.
Series [6] in a line: Drug localization in lysosome of mouse NIH3T3 cells at 1 uM incubated for 5 mins by lyso-tracker red based confocal microscopic method. Format: ADME, cell-based. To be noted: nih3t3, 5 min.
Series [7] concerns K562. In words: Induction of apoptosis in human K562 cells assessed as activation of PARP cleavage measured after 24 hrs by Western blot analysis. Format: functional, cell-based.
In series [8] the test system is K562. In words: Induction of cell cycle arrest in human K562 cells assessed as increase in accumulation at sub-G1 phase at 5 uM after 48 hrs by propidium iodide staining based flow cytometric analysis (reference value: 8.4%). Format: functional.
Series [9] addresses T1, DNA topoisomerase 1 (Homo sapiens) (UniProt P11387).
T1 sequence (whole entry): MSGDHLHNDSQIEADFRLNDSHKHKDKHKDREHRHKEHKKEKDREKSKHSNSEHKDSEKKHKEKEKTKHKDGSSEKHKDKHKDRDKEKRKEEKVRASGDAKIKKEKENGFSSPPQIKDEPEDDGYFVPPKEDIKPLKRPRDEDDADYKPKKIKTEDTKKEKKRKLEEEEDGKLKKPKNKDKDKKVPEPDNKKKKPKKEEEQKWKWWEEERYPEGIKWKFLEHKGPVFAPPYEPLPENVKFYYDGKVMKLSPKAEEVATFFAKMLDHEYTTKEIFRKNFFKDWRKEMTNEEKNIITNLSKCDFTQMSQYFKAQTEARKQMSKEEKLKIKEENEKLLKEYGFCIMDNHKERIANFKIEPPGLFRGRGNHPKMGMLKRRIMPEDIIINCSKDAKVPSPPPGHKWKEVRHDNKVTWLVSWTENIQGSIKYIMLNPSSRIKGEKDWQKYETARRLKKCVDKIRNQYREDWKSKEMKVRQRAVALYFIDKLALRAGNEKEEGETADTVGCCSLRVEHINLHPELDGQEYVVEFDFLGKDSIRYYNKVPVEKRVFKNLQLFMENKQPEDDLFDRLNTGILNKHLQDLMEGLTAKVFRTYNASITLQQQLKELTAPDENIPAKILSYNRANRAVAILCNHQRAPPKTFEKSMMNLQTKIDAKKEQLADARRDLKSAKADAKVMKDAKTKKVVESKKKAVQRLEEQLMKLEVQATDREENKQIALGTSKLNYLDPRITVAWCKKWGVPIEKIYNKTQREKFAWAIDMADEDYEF
Put plainly: Inhibition of topoisomerase 1 (unknown origin) assessed as relaxation of supercoiled plasmid pBR322 DNA at 1 to 5 uM incubated for 30 mins by electrophoresis. The note with it: dose 1-5 µM.

Series [10] in a line: Drug localization in mitochondria of mouse NIH3T3 cells at 1 uM measured after 60 mins by MitoTracker red based confocal microscopic method. Format: ADME. To be noted: nih3t3, 1 h.
The test system of series [11] is K562. Put plainly: Induction of apoptosis in human K562 cells assessed as activation of casapse-9 cleavage measured after 24 hrs by Western blot analysis. Format: functional, cell-based.
A short description of series [12]: Cytotoxicity in human K562/4 cells assessed as reduction in cell viability incubated for 72 hrs by MTT assay. Format: functional, cell-based. The note with it: K562/4, 72 h.
Series [13] can be described thus: Drug localization in lysosome of mouse NIH3T3 cells at 1 uM incubated for 60 mins by lyso-tracker red based confocal microscopic method. Format: ADME, cell-based. The note with it: nih3t3, 1 h.
Series [14] relates to HCT-116. Put plainly: Cytotoxicity against p53 knock out human HCT-116 cells assessed as reduction in cell viability incubated for 72 hrs by MTT assay. Format: functional, cell-based. The note with it: HCT-116, 72 h.
The subject of series [15] is K562. In words: Induction of cell cycle arrest in human K562 cells assessed as increase in accumulation at sub-G1 phase at 2.5 uM after 48 hrs by propidium iodide staining based flow cytometric analysis (reference value: 8.4%). It counts as functional.
Series [16] is described as follows: Drug localization in mitochondria of mouse NIH3T3 cells at 1 uM measured after 5 mins by MitoTracker red based confocal microscopic method. The note with it: nih3t3, 5 min. Format: ADME.
The subject of the next series is HeLa. In words: Cytotoxicity in human HeLa cells assessed as reduction in cell viability incubated for 72 hrs by MTT assay. It counts as functional, cell-based.
The test system of series [17] is K562. In words: Induction of cell cycle arrest in human K562 cells assessed as increase in accumulation at sub-G1 phase at 2.5 uM after 24 hrs by propidium iodide staining based flow cytometric analysis (reference value: 8.4%). It counts as functional.
Series [18] has as its system K562. In words: Induction of cell cycle arrest in human K562 cells assessed as increase in accumulation at sub-G1 phase at 5 uM after 24 hrs by propidium iodide staining based flow cytometric analysis (reference value: 8.4%). It counts as functional.
For series [19], the system named is K562. Put plainly: Induction of apoptosis in human K562 cells assessed as activation of casapse-3 cleavage measured after 24 hrs by Western blot analysis. It counts as functional, cell-based. The note with it: dose 2.5 µM.
Series [20] in a line: Resistance index, ratio of IC50 for cytotoxicity against human K562/4 cells to IC50 for cytotoxicity against human K562 cells. It counts as functional.
Series [21] concerns K562. In words: Induction of cell cycle arrest in human K562 cells assessed as increase in accumulation at sub-G1 phase at 0.5 uM after 24 hrs by propidium iodide staining based flow cytometric analysis (reference value: 8.4%). Format: functional.
Series [22] is described as follows: Drug localization in nuclei of mouse NIH3T3 cells at 1 uM incubated for 5 to 60 mins by Hoechst 33258 staining based laser confocal microscopy. Format: ADME, cell-based. The note with it: nih3t3, 1 µM, time 5-60 min.
The nature of series [23]: Resistance index, ratio of IC50 for cytotoxicity against p53 knock out human HCT-116 cells to IC50 for cytotoxicity against human HCT-116 cells. Format: functional.
Series [24] is described as follows: Drug localization in cytoplasm of mouse NIH3T3 cells at 1 uM incubated for 5 to 60 mins by laser confocal microscopy. Format: ADME, cell-based. To be noted: nih3t3, 1 µM, time 5-60 min.
In the next series the test system is Calf thymus DNA. In words: Binding affinity to calf thymus double strand DNA incubated for 5 mins by spectrophotometry. To be noted: Bos taurus. It counts as nucleic-acid assay.

For the compound `Cc1c(C(=O)N2CC[C@H](N)C2)sc2c(O)c3c(c(O)c12)C(=O)c1ccccc1C3=O`, the half-inhibitory concentration (IC50) in the series with NCI-H460 came to 5 µM; in the series on HL-60, 200 nM; in the series with CAPAN-1, 2200 nM; in series [1] it was 1600 nM.
`O=C(N[C@@H]1CCNC1)c1cc2c(O)c3c(c(O)c2s1)C(=O)c1ccccc1C3=O`: the IC50 in the series on NCI-H460 came to 4.1 µM; in the series on HL-60, 2700 nM; in the series with CAPAN-1 it was 5800 nM; in [1], 1300 nM.
With `O=C(NC1CN2CCC1CC2)c1cc2c(O)c3c(c(O)c2s1)C(=O)c1ccccc1C3=O` (stereo not drawn), the IC50 was more than 20 µM in the series with NCI-H460, 7300 nM in the series on HL-60, 4600 nM in the series on CAPAN-1 and 2400 nM in series [1].
With `N[C@H]1CCN(C(=O)c2csc3c(O)c4c(c(O)c23)C(=O)c2ccccc2C4=O)C1`, in [1], the IC50 amounted to 2600 nM.
Regarding `COc1cccc2c1C(=O)c1c(O)c3c(c(O)c1C2=O)C[C@@](O)(C(=O)CO)C[C@@H]3O[C@H]1C[C@H](N)[C@H](O)[C@H](C)O1` [DOXORUBICIN], the IC50 worked out at 0.4 µM in the series on NCI-H460, 1700 nM in the series with CAPAN-1, 200 nM in the series on Fibroblast and 700 nM in series [1].
On to `NC1CCCN(C(=O)c2cc3c(O)c4c(c(O)c3s2)C(=O)c2ccccc2C4=O)C1` (racemic), for which the half-maximal inhibitory concentration (IC50) in the series on NCI-H460 was 0.4 µM; with HL-60, 400 nM; in the series on CAPAN-1, 1200 nM; in series [1] it was 600 nM.
Regarding `N[C@H]1CCN(C(=O)c2cc3c(O)c4c(c(O)c3o2)C(=O)c2ccccc2C4=O)C1`, the IC50 in the series with HCT-116 [2] is more than 50 µM; with NCI-H460, more than 20 µM; in the series on HL-60, 700 nM; in series [12], 600 nM; with HCT-116 [14], more than 50 µM; in the series on HeLa, more than 50 µM. Moreover, the IC50 is more than 20000 nM with CAPAN-1, more than 50000 nM in the series with Fibroblast and 1500 nM in series [1]. In addition, the outcome in the series with K562 [3], in the series on K562 [5], in the series with K562 [7], with K562 [11] and in the series with K562 [19] was inactive. For the same compound, the Activity is reported as 7% with K562 [4]; 48.7% with K562 [8]; 23% with K562 [15]; 24.2% with K562 [17]; 40.2% in the series on K562 [18]; 14.8% in the series with K562 [21]. Further, the Drug uptake result was “Active” in series [6]; “Not Active” in series [10]; “Active” in series [13]; “Not Active” in [16]; “Not Active” in series [22]; “Active” in [24]. Moreover, the inhibition result in series [9] is “Active”. Also, the Ratio in series [20] turned out to be 1.2; in series [23], 1. In the series with Calf thymus DNA, the outcome was Active.
`O=C(NC1CCCNC1)c1cc2c(O)c3c(c(O)c2s1)C(=O)c1ccccc1C3=O` (racemic): the IC50 in the series on NCI-H460 came to 1.4 µM; with HL-60 it was 1100 nM; in the series with CAPAN-1 it was 2300 nM; in series [1], 1000 nM.
The corresponding values for `N[C@@H]1CCN(C(=O)c2cc3c(O)c4c(c(O)c3s2)C(=O)c2ccccc2C4=O)C1` are 0.4 µM, 1100 nM, 1500 nM and 400 nM.
As to `Cc1c(C(=O)N2CC[C@@H](N)C2)sc2c(O)c3c(c(O)c12)C(=O)c1ccccc1C3=O`, the IC50 with NCI-H460 was 1.2 µM; in the series with HL-60, 1800 nM; with CAPAN-1 it was 2000 nM; in series [1] it was 1400 nM.
The corresponding values for `N[C@@H]1CN(C(=O)c2cc3c(O)c4c(c(O)c3s2)C(=O)c2ccccc2C4=O)C[C@H]1N` are 16.1 µM, more than 20000 nM, more than 20000 nM and 10900 nM.
The corresponding values for `NCCNC(=O)c1cc2c(O)c3c(c(O)c2s1)C(=O)c1ccccc1C3=O` are 8.3 µM, more than 20000 nM, more than 20000 nM and 3700 nM.
For `O=C(NC1CCNCC1)c1cc2c(O)c3c(c(O)c2s1)C(=O)c1ccccc1C3=O`, the IC50 in the series with NCI-H460 worked out at 1.4 µM; in the series on HL-60, 3200 nM; in the series with CAPAN-1, 600 nM; in series [1] it was 1600 nM.
For the compound `NCCN(CCN)C(=O)c1cc2c(O)c3c(c(O)c2s1)C(=O)c1ccccc1C3=O`, the 50% inhibitory concentration (IC50) with NCI-H460 was found to be 8.3 µM; with HL-60 it was 14100 nM; in the series on CAPAN-1, 16800 nM; in series [1], 3100 nM.
`O=C(N[C@H]1CCNC1)c1cc2c(O)c3c(c(O)c2s1)C(=O)c1ccccc1C3=O`: the half-maximal inhibitory concentration (IC50) with NCI-H460 came out at 3.5 µM; in the series with HL-60 it was 2900 nM; in the series with CAPAN-1, 6300 nM; in [1] it was 1000 nM.
